Source: patent publication US20160115540A1, “PRODRUGS AND DRUGS” (Biogen MA Inc., priority 2013, published 2016)
Structures can show the parent of a compound that is named as a salt.

Key:
[1] = test system: spinal cord; assay: Transcriptional profiling, multi-dosing regimen, naïve mice: spinal cord; format: in vivo; conditions: for FC, Depp (1433836_PM_a_at) / FC, Depp (1433837_PM_at): SpinalCord, multi-dosing; for Number of differentially expressed genes identified: Spinal Cord: Table 13: Naïve, Single Dose (so in the source), 12 h after last dosing
Protocol: In vivo, DMF is rapidly metabolized to monomethyl fumarate (MMF). […] Animals were exposed to CO2 and whole blood collected via cardiac puncture. Two 100 μl aliquots of whole blood were collected in 1.5 mL microcentrifuge tubes and snap frozen in liquid nitrogen. Peripheral (liver, spleen, kidney and jejunum) and CNS brain (cerebellum, hippocampus, striatum and cortex) tissues were harvested and snap frozen in liquid nitrogen, with special care taken to collect tissues of similar size and from the same location. All samples were stored at -80° C. until RNA extraction was conducted. For RNA preparation, frozen tissues were placed in 2 mL RNAse-free 96-well blocks with 1.5 mL QIAzol Lysis Reagent (QIAgen) and a 3.2 mm stainless steel bead (BioSpec Products, Bartlesville, Okla.). Tissues were disrupted for four cycles of 45 seconds in a Mini-Beadbeater (Biospec Products). RNA was extracted in chloroform and the aqueous phase was mixed with an equal volume of 70% ethanol. Extracted RNA was applied to RNeasy 96 plates and purified by the spin method according to the manufacturer's protocol (RNeasy 96 Universal Tissue Protocol, QIAgen, Hilden Germany). […] Two micrograms of biotin labeled […] probe were hybridized to Affymetrix GeneChip Affymetrix HT_MG-430_PM plate arrays with modified conditions as described in […] et al. Washing and staining of the hybridized arrays were completed as described in the GeneChip Expression analysis technical manual for HT plate arrays using the Genechip® Array Station (Affymetrix, Santa Clara, Calif.) with modifications as described in […] et al. The processed GeneChip® plate arrays were scanned using GeneTitan scanner (Affymetrix, Santa Clara, Calif.). Affymetrix scans were subject to quality control (QC) measures. These tests included a visual inspection of the distribution of raw signal intensities and an assessment of RNA degradation, relative log expression (RLE), and normalized unsealed standard error (NUSE). All sample scans that passed these QC metrics were included in the analysis. All CEL files were subjected to GC-content-based Robust Multi-array Average (GCRMA) normalization (version 2.20.0) (Irizarry R A, et al. Nucleic Acids Res 2003; 31:e15; Li C, et al. […] Stat Appl Genet Mol Biol 2004; 3:Article3). […] Springer Science+Business Media 2005). Changes in gene expression were studied by applying a linear modeling approach to fit gene expression levels according to the defined groups of samples (e.g. DMF-, MMF-, and Vehicle-treated animals) and Bayesian posterior error analysis as implemented by Smyth (Smyth G K. Stat Appl Genet Mol Biol 2004; 3:Article3). The comparisons considered included: DMF-vs-MMF, DMF-vs-Vehicle, and MMF-vs-Vehicle. […] Very few DEGs are observed in blood and tissues derived from the central nervous system (brain, cerebellum, cortex, striatum, and spinal cord).

[2] = test system: hippocampus; assay: Transcriptional profiling on Affymetrix GeneChips, single dose, naïve mice: hippocampus; format: in vivo, C57BL/6 mice; conditions: for Tmtc3 (1458305_PM_at) differential expression: 7 hr; for Number of differentially expressed genes identified: Hippocampus: Naïve, Single Dose
Protocol: Treated mice were sacrificed at 2, 7, or 12 hours. Tissues (liver, spleen, kidney, jejunum, cortex, hippocampus, striatum and whole blood) were collected and analyzed by transcriptional profiling on mouse Affymetrix GeneChips.
Tissues (liver, spleen, kidney, jejunum, cortex, hippocampus, striatum and whole blood) were collected and analyzed by transcriptional profiling on mouse Affymetrix GeneChips.
Animals were exposed to CO2 and whole blood collected via cardiac puncture. Two 100 μl aliquots of whole blood were collected in 1.5 mL microcentrifuge tubes and snap frozen in liquid nitrogen. Peripheral (liver, spleen, kidney and jejunum) and CNS brain (cerebellum, hippocampus, striatum and cortex) tissues were harvested and snap frozen in liquid nitrogen, with special care taken to collect tissues of similar size and from the same location. All samples were stored at −80° C. until RNA extraction was conducted.
For RNA preparation, frozen tissues were placed in 2 mL RNAse-free 96-well blocks with 1.5 mL QIAzol Lysis Reagent (QIAgen) and a 3.2 mm stainless steel bead (BioSpec Products, Bartlesville, Okla.). Tissues were disrupted for four cycles of 45 seconds in a Mini-Beadbeater (Biospec Products). RNA was extracted in chloroform and the aqueous phase was mixed with an equal volume of 70% ethanol. Extracted RNA was applied to RNeasy 96 plates and purified by the spin method according to the manufacturer's protocol (RNeasy 96 Universal Tissue Protocol, QIAgen, Hilden Germany).
Automated sample amplifications and biotin labelings were carried out using the NuGEN Ovation RNA Amplification system V2 (Cat #3100), Ovation WB reagent (Cat #1300) and Encore Biotin module (Cat #4200) (NuGEN Technologies, Inc, San Carlos, Calif.) according to manufacturer's recommendations using an Arrayplex automated liquid handler (Beckman Coulter, Indianapolis, Ind.). Two micrograms of biotin labeled sscDNA probe were hybridized to Affymetrix GeneChip Affymetrix HT_MG-430_PM plate arrays with modified conditions as described in Allaire et al. Washing and staining of the hybridized arrays were completed as described in the GeneChip Expression analysis technical manual for HT plate arrays using the Genechip® Array Station (Affymetrix, Santa Clara, Calif.) with modifications as described in Allaire et al. The processed GeneChip® plate arrays were scanned using GeneTitan scanner (Affymetrix, Santa Clara, Calif.).
Affymetrix scans were subject to quality control (QC) measures. These tests included a visual inspection of the distribution of raw signal intensities and an assessment of RNA degradation, relative log expression (RLE), and normalized unsealed standard error (NUSE). All sample scans that passed these QC metrics were included in the analysis.
All CEL files were subjected to GC-content-based Robust Multi-array Average (GCRMA) normalization (version 2.20.0) (Irizarry R A, et al. Nucleic Acids Res 2003; 31:e15; Li C, et al. Genome Biol 2001; 2:[…]0032). Expression levels were log (base 2) transformed.
All calculations and analyses were carried out using R (version 2.11.1) and Bioconductor computational tools (Gentleman R. Springer Science+Business Media 2005).

[3] = SPINAL CORD, 100DMF-vs-100MMF, naïve multidose
[4] = 100 mpk, vs Vehicle, 2 h after last dosing
[5] = 100 mpk, vs Vehicle, 7 h after last dosing
[6] = 100 mpk, vs Vehicle, 12 h after last dosing
[7] = hippocampus, 100DMF-vs-100MMF, 2 h
[8] = hippocampus, 100DMF-vs-Veh, 7 h
[9] = hippocampus, 100MMF-vs-Veh, 2 h
[10] = hippocampus, 100MMF-vs-Veh, 7 h
[11] = hippocampus, 2 hr after single 100 mg/kg oral dose

COC(=O)/C=C/C(=O)OC [DMF, dimethyl fumarate]
FC 8430408G22Rik (1433836_PM_a_at) [1, 3]: 1.92
FC 8430408G22Rik (1433837_PM_at) [1, 3]: 1.65
FC Mtmr2 (1425459_PM_at) [1, 3]: 1.57
FC Tle4 (1430384_PM_at) [1, 3]: −1.55
FC 8430408G22Rik (1433837_PM_at) ([1]; SPINAL CORD, 100DMF-vs-Veh, naïve multidose): 1.73
FC, Depp (1433836_PM_a_at) ([1]; DMF-vs-MMF): 1.92
FC, Depp (1433837_PM_at) ([1]; DMF-vs-MMF): 1.65
FC, Depp (1433836_PM_a_at) ([1]; DMF-vs-Vehicle): 1.66
FC, Depp (1433837_PM_at) ([1]; DMF-vs-Vehicle): 1.73
Number of differentially expressed genes identified: Spinal Cord ([1]; 100 mpk DMF-vs-90 mpk MMF): 4
Number of differentially expressed genes identified: Spinal Cord ([1]; 100 mpk DMF-vs-Vehicle): 1
DEPP gene induction (mRNA) ([1]; spinal cord, multi-dosing regimen, naïve mice): robustly induced
Number of genes, DMF Only / MMF Only ([2]; Hippocampus): 0
Tmtc3 (1458305_PM_at) differential expression ([2]; Hippocampus): −2.38
Number of differentially expressed genes identified: Hippocampus ([2]; 100 mpk DMF-vs-100 mpk MMF, 2 h after last dosing): 2
Number of differentially expressed genes identified: Hippocampus ([2]; 100 mpk DMF-vs-100 mpk MMF, 7 h after last dosing): 0
Number of differentially expressed genes identified: Hippocampus ([2]; 100 mpk DMF-vs-100 mpk MMF, 12 h after last dosing): 0
Number of differentially expressed genes identified: Hippocampus [2, 4]: 0
Number of differentially expressed genes identified: Hippocampus [2, 5]: 2
Number of differentially expressed genes identified: Hippocampus [2, 6]: 0
FC Dio2 (1418938_PM_at) [2, 7]: 1.58
FC Tmtc3 (1458305_PM_at) [2, 7]: −1.88
differentially expressed genes ([2]; hippocampus, 100DMF-vs-100MMF, 7 h): None
differentially expressed genes ([2]; hippocampus, 100DMF-vs-100MMF, 12 h): None
differentially expressed genes ([2]; hippocampus, 100DMF-vs-Veh, 2 h): None
FC Tmtc3 (1458305_PM_at) [2, 8]: −2.38
FC probe 1443353_PM_at [2, 8]: −1.84
differentially expressed genes ([2]; hippocampus, 100DMF-vs-Veh, 12 h): None

COC(=O)/C=C/C(=O)O [MMF, monomethyl fumarate]
FC, Depp (1433836_PM_a_at) ([1]; MMF-vs-Vehicle): −1.16
FC, Depp (1433837_PM_at) ([1]; MMF-vs-Vehicle): 1.05
Number of differentially expressed genes identified: Spinal Cord ([1]; 90 mpk MMF-vs-Vehicle): 0
Number of genes, DMF Only / MMF Only ([2]; Hippocampus): 6
Dnajc18 (1425077_PM_at) differential expression ([2]; Hippocampus, 2 hr): −1.58
Heatr5b (1438085_PM_at) differential expression ([2]; Hippocampus, 2 hr): −1.56
Kcnq3 (1458421_PM_at) differential expression ([2]; Hippocampus, 2 hr): −1.50
Kpna4 (1417975_PM_at) differential expression ([2]; Hippocampus, 2 hr): −1.51
Nfat5 (1426029_PM_a_at) differential expression ([2]; Hippocampus, 2 hr): −1.51
Srgap2 (1434407_PM_at) differential expression ([2]; Hippocampus, 2 hr): −1.50
Tmtc3 (1458305_PM_at) differential expression ([2]; Hippocampus): −2.40
Number of differentially expressed genes identified: Hippocampus [2, 4]: 3
Number of differentially expressed genes identified: Hippocampus [2, 5]: 2
Number of differentially expressed genes identified: Hippocampus [2, 6]: 1
FC Heatr5b (1438085_PM_at) [2, 9]: −1.56
FC Kpna4 (1417975_PM_at) [2, 9]: −1.51
FC Srgap2 (1434407_PM_at) [2, 9]: −1.50
FC Tmtc3 (1458305_PM_at) [2, 10]: −2.40
FC probe 1443353_PM_at [2, 10]: −1.74
FC LOC100502895 (1435119_PM_at) ([2]; hippocampus, 100MMF-vs-Veh, 12 h): 1.66
Dnajc18 mRNA fold change vs vehicle [2, 11]: −1.58
Heatr5b mRNA fold change vs vehicle [2, 11]: −1.56
Kcnq3 mRNA fold change vs vehicle [2, 11]: −1.50
Kpna4 mRNA fold change vs vehicle [2, 11]: −1.51
Nfat5 mRNA fold change vs vehicle [2, 11]: −1.51
Srgap2 mRNA fold change vs vehicle [2, 11]: −1.50
Tmtc3 mRNA fold change vs vehicle ([2]; hippocampus, 7 hr after single 100 mg/kg oral dose): −2.40
